Data published in ChEMBL document CHEMBL6115009.
Active and inactive are the calls of the source. The calls are words filed in the database; no cut-off is given here.

Key:
[1] = biological target: Sodium-dependent serotonin transporter (Homo sapiens) (UniProt P31645); assay: Displacement of [3H]paroxetine from recombinant human SERT expressed in HEK293 cells at 1 to 10 uM incubated for 1 hr; format: cell-based; settings: dose 1-10 µM
[2] = biological target: Glutamate NMDA receptor (Rattus norvegicus) (UniProt P35439+Q00959+Q00960+Q00961+Q62645+Q8VHN2+Q9R1M7); assay: Displacement of [3H]TCP from Wistar rat cerebral cortex NMDAR at 10 uM incubated for 1.5 hrs; format: tissue-based
[3] = biological target: T1, 5-hydroxytryptamine receptor 1A (Homo sapiens) (UniProt P08908); assay: Displacement of [3H]8-OH-DPAT from recombinant human 5-HT1A receptor expressed in CHO-K1 cells at 0.3 to 3 uM incubated for 1 hr; format: cell-based; settings: dose 0.3-3 µM
T1 sequence (whole entry): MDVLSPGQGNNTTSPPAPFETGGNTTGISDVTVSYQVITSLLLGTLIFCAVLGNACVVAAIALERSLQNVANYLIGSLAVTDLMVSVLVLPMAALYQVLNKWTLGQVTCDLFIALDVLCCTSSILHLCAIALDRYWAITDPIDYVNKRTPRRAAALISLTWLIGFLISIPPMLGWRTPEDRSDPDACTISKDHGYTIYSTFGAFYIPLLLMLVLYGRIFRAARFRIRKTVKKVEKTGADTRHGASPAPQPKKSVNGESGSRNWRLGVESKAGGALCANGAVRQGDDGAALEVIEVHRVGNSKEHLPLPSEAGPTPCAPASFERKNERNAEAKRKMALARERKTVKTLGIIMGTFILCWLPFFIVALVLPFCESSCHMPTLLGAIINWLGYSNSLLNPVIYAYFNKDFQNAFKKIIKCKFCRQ

[4] = biological target: Glutamate NMDA receptor; GRIN1/GRIN2B (Homo sapiens) (UniProt Q05586+Q13224); assay: Antagonist activity at GluN1/GluN2B receptor (unknown origin) overexpressed in CHO cells assessed as inhibition of Ca2+ flux incubated for 24 hrs in presence of glycine/L-glutamate by FLIPR assay; format: cell-based
[5] = biological target: Glutamate NMDA receptor; GRIN1/GRIN2A (Homo sapiens) (UniProt Q05586+Q12879); assay: Antagonist activity at GluN1/GluN2A receptor (unknown origin) overexpressed in CHO cells assessed as inhibition of Ca2+ flux incubated for 24 hrs in presence of glycine/L-glutamate by FLIPR assay; format: cell-based
[6] = biological target: Ionotropic glutamate receptor NMDA 1/2C (Homo sapiens) (UniProt Q05586+Q14957); assay: Antagonist activity at GluN1/GluN2C receptor (unknown origin) overexpressed in CHO cells assessed as inhibition of Ca2+ flux incubated for 24 hrs in presence of glycine/L-glutamate by FLIPR assay; format: cell-based
[7] = biological target: Ionotropic glutamate receptor NMDA 1/2D (Homo sapiens) (UniProt Q05586+O15399); assay: Antagonist activity at GluN1/GluN2D receptor (unknown origin) overexpressed in CHO cells assessed as inhibition of Ca2+ flux incubated for 24 hrs in presence of glycine/L-glutamate by FLIPR assay; format: cell-based
[8] = biological target: Sodium-dependent serotonin transporter (Homo sapiens) (UniProt P31645); assay: Displacement of [3H]paroxetine from recombinant human SERT expressed in HEK293 cells at 10 uM incubated for 1 hr; format: cell-based
[9] = Selectivity index, ratio of displacement of [3H]TCP from Wistar rat cerebral cortex NMDAR to displacement of [3H]diprenorphine from recombinant human mu opioid receptor expressed in CHO-K1 cells; format: cell-based
[10] = biological target: Histamine H1 receptor (Homo sapiens) (UniProt P35367); assay: Displacement of [3H]pyrilamine from recombinant human histamine H1 receptor expressed in CHO-K1 cells at 10 to 30 uM incubated for 3 hrs; format: cell-based; settings: dose 10-30 µM
Sequence of Histamine H1 receptor (Homo sapiens) (P35367 whole entry): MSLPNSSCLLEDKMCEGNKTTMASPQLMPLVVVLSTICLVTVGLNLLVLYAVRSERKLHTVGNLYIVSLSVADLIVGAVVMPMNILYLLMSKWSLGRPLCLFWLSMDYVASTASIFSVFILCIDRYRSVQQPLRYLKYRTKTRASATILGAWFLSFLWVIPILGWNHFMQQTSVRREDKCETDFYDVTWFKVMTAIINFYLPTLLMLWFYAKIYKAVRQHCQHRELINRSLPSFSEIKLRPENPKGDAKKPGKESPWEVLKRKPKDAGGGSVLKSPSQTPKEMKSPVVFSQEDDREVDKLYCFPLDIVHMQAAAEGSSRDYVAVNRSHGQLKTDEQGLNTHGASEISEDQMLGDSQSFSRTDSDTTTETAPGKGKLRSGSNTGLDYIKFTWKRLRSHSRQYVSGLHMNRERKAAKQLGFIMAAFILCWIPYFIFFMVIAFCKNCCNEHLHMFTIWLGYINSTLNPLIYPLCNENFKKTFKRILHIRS

[11] = biological target: Sigma non-opioid intracellular receptor 1 (Homo sapiens) (UniProt Q99720); assay: Displacement of [3H]pentazocine from sigma 1 receptor in human Jurkat cells at 0.3 to 3 uM incubated for 2 hrs; format: cell-based; settings: dose 0.3-3 µM
Sequence of Sigma non-opioid intracellular receptor 1 (Homo sapiens) (Q99720 whole entry): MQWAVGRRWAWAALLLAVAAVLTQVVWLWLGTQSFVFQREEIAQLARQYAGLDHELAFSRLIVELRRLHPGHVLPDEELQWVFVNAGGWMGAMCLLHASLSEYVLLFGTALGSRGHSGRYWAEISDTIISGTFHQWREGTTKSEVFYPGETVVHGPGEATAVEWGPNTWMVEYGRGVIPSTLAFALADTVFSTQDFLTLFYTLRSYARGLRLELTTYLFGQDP

Sequence of Sodium-dependent serotonin transporter (Homo sapiens) (P31645 whole entry, looked up): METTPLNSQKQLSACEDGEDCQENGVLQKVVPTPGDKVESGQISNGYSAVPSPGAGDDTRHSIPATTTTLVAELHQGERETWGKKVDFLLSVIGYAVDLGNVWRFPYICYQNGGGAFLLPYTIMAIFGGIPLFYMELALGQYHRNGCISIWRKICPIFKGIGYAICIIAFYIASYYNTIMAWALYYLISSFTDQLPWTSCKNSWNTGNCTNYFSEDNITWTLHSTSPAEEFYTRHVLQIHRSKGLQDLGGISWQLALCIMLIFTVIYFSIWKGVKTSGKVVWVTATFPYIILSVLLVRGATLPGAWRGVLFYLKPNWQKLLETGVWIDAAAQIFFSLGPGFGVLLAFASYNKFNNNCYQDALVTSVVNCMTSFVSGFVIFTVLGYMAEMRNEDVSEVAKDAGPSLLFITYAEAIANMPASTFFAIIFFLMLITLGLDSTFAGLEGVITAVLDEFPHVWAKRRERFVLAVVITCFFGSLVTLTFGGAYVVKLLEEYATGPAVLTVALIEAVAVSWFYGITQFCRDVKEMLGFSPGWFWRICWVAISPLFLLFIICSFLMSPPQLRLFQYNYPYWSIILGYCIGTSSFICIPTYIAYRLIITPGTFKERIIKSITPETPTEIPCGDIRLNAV

Which Activity [1] does the source give for CC[C@H](O)C(C[C@H](C)N)(c1ccccc1)c1ccccc1 here?
The Activity was “Active”.

And the Activity ([2]; filed as antagonist)?
Its Activity is “Active”.

And the Activity [3]?
Its Activity is “inactive”.

For C[C@H](CC(C(=O)O)(c1ccccc1)c1ccccc1)N(C)C, which inhibition [4] is on record?
The inhibition was “inactive”.

What about the inhibition [5] of the same compound?
Its inhibition is “inactive”.

What about the inhibition [6] of the same compound?
Its inhibition is “inactive”.

What about the inhibition [7] of the same compound?
The inhibition was “inactive”.

For CCC1=[N+](C)[C@@H](C)CC1(c1ccccc1)c1ccccc1, which inhibition [4] is on record?
Its inhibition is “inactive”.

And the inhibition [5]?
The inhibition was “inactive”.

What about the inhibition [6] of the same compound?
Its inhibition is “inactive”.

What about the inhibition [7] of the same compound?
The inhibition was “inactive”.

Which Activity ([2]; filed as antagonist) does the source give for CCC(=O)C(C[C@H](C)N(C)C)(c1ccccc1)c1ccccc1 here?
Its Activity is “Active”.

And the Activity [3]?
The Activity was “Active”.

What does the source list for C[C@H]1CC(c2ccccc2)(c2ccccc2)C(=O)N1C?
inhibition [4]: inactive; inhibition [5]: inactive; inhibition [6]: inactive; inhibition [7]: inactive

For C[C@@H](CC(C(=O)O)(c1ccccc1)c1ccccc1)N(C)C, which inhibition [4] is on record?
Its inhibition is “inactive”.

What about the inhibition [5] of the same compound?
Its inhibition is “inactive”.

What about the inhibition [6] of the same compound?
Its inhibition is “inactive”.

What about the inhibition [7] of the same compound?
The inhibition was “inactive”.

With CC[C@@H](O)C(C[C@@H](C)NC)(c1ccccc1)c1ccccc1 as the compound, how does the Activity [8] read?
Its Activity is “Active”.

What about the Activity ([2]; filed as antagonist) of the same compound?
Its Activity is “Active”.

And the Ratio pKi [9]?
The Ratio pKi was 0.83.

What about the Activity [3] of the same compound?
The Activity was “inactive”.

What does the source list for C[C@@H]1CC(c2ccccc2)(c2ccccc2)C(=O)N1C?
inhibition [4]: inactive; inhibition [5]: inactive; inhibition [6]: inactive; inhibition [7]: inactive

Which inhibition [4] does the source give for CC[C@@H](O)C(C[C@H](C)N(C)C)(c1ccccc1)c1ccccc1 here?
The inhibition was “inactive”.

And the inhibition [6]?
Its inhibition is “inactive”.

What about the inhibition [7] of the same compound?
The inhibition was “inactive”.

Which Activity [10] does the source give for CC[C@H](O)C(C[C@H](C)NC)(c1ccccc1)c1ccccc1 here?
Its Activity is “Active; Compound Displayed Significant Activity Like (S)-Methadone”.

What about the Activity ([2]; filed as antagonist) of the same compound?
The Activity was “Active; Compound Activity Comparable To (S)-Methadone”.

What about the Activity [3] of the same compound?
Its Activity is “inactive”.

And the Activity [11]?
Its Activity is “Active”.

What does the source list for CCC1=[N+](C)[C@H](C)CC1(c1ccccc1)c1ccccc1?
inhibition [4]: inactive; inhibition [5]: inactive

For CC[C@H](O)C(C[C@@H](C)N)(c1ccccc1)c1ccccc1, which Activity ([2]; filed as antagonist) is on record?
Its Activity is “Active”.

What about the Activity [3] of the same compound?
The Activity was “inactive”.

For CC[C@H](O)C(C[C@@H](C)N(C)C)(c1ccccc1)c1ccccc1, which inhibition [4] is on record?
Its inhibition is “inactive”.

What does the source list for CC[C@H](O)C(C[C@@H](C)NC)(c1ccccc1)c1ccccc1?
Activity [8]: Active; Activity ([2]; filed as antagonist): Active; Ratio pKi [9]: 0.98; Activity [3]: inactive

For CC[C@@H](O)C(C[C@H](C)N)(c1ccccc1)c1ccccc1, which Activity [1] is on record?
Its Activity is “Active”.

What about the Activity ([2]; filed as antagonist) of the same compound?
The Activity was “Active; Compound Activity Comparable To (S)-Methadone”.

And the Activity [3]?
Its Activity is “inactive”.

Which results are given for CCC1=N[C@H](C)CC1(c1ccccc1)c1ccccc1?
Activity [2]: inactive; Activity [3]: inactive
